Read-outs that look alike come from different tables or passages of the source.
Experiments:
[1] = target: T1, TCPTP (13–358) (Homo sapiens, UniProt P17706); assay: TCPTP inhibition assay with DiFMUP as substrate; assay type: biochemical; settings: read-out: IC50 TCPTP; means ± SD of three replications
T1 sequence (P17706 13-358): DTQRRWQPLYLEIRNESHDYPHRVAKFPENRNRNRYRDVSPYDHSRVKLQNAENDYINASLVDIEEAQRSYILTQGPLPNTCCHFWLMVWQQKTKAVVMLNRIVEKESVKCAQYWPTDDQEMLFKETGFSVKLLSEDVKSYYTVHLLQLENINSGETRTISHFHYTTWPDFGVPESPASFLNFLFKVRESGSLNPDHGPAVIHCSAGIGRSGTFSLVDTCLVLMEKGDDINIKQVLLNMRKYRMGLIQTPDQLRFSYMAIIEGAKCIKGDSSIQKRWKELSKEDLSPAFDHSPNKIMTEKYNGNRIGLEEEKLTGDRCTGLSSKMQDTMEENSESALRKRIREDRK

[2] = target: T2, PTP1B (1–321) (Homo sapiens, UniProt P18031); assay: PTP1B inhibition assay with DiFMUP as substrate
T2 sequence (P18031 1-321): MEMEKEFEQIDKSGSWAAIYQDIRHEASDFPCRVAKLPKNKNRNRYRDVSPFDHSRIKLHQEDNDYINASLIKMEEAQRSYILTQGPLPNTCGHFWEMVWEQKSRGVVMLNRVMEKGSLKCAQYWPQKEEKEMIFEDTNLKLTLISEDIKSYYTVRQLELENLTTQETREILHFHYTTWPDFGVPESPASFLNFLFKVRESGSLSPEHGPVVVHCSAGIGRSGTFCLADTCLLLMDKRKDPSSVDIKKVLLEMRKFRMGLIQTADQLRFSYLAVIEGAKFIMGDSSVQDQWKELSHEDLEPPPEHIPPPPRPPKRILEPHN

IC50 [1]: 71.9 ± 3.87 µM
IC50 ([2]; PTP1B, Table 3, means ± SD of three replications): 26.2 ± 8.58 µM
IC50 ([2]; read-out: IC50 PTP1B, means ± SD of three replications): 26.2 ± 8.58 µM
Structure (SMILES): O=S(=O)(O)c1ccc2cc(N=Nc3cc(S(=O)(=O)O)c4cccnc4c3O)ccc2c1 [NSC-87877]

— article PMC8694002 (RSC Advances, 2021)
